Reference: patent US20250122182A1 (Isosterix, Inc., priority 2023, published 2025)

Molecular target: Recombinant KAT6A/MOZ (488-778) protein (Homo sapiens (Human), UniProt Q92794)
Assay: KAT6A AlphaLISA Inhibition Screening Assay
Assay type: biochemical
Conditions: for inhibition at 1 µM: read-out: Average Kat6A % inhibition @ 1 μM; for inhibition at 1 µM / Average Kat6A % inhibition @ 1 μM: 1 μM test compound; for inhibition at 10 µM: read-out: Average Kat6A % inhibition @ 10 μM; for inhibition at 10 µM / Average Kat6A % inhibition @ 10 μM: 10 μM test compound
Summary of the method: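 25 nM KAT6A (488-778) pre-incubated 60 or 10 min with compound (10-point, 3-fold from 10 μM), then 400 nM acetyl-CoA and 200 nM biotin-H3(1-21) peptide added for 120 min at RT in pH 8.0 Tris buffer with 330 nM TSA. Acetylation read by AlphaLISA (anti-acetyl-lysine acceptor/streptavidin donor beads); % inhibition vs vehicle.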

Sequence of Recombinant KAT6A/MOZ (488-778) protein (Q92794 488-778): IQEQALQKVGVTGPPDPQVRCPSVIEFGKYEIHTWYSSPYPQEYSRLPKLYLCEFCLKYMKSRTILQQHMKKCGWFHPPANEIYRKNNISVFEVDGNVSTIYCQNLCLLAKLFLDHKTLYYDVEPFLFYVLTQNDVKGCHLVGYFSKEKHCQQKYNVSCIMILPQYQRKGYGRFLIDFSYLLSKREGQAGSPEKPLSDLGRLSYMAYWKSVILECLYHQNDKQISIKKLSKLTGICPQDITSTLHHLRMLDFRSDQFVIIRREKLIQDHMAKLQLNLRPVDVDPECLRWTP

Compound	inhibition at 1 µM [%]	inhibition at 10 µM [%]	Average Kat6A % inhibition @ 1 μM [%]	Average Kat6A % inhibition @ 10 μM [%]
C=C(Cl)C(=O)NCc1cnn(Cc2cc(OC)c3c(NS(=O)(=O)c4cc(CC)ccc4OC)noc3c2)c1 [Syn. Ex. 35, 2-chloro-N-((1-((3-((5-ethyl-2-methoxyphenyl)sulfonamido)-4-methoxybenzo[d]isoxazol-6-yl)methyl)-1H-pyrazol-4-yl)methyl)acrylamide]	100	100		
C=C(F)C(=O)NCc1cnn(Cc2cc(OC)c3c(NS(=O)(=O)c4cc(OC)ccc4OC)noc3c2)c1 [Syn. Ex. 41, N-((1-((3-((2,5-dimethoxyphenyl)sulfonamido)-4-methoxybenzo[d]isoxazol-6-yl)methyl)-1H-pyrazol-4-yl)methyl)-2-fluoroacrylamide]	87	100		
C#CC(=O)NCc1cnn(Cc2cc(OC)c3c(NS(=O)(=O)c4c(OC)ccnc4OC)noc3c2)c1 [Syn. Ex. 85, N-((1-((3-((2,4-dimethoxypyridine)-3-sulfonamido)-4-methoxybenzo[d]isoxazol-6-yl)methyl)-1H-pyrazol-4-yl)methyl)propiolamide]			91	95
C=C(F)C(=O)NCc1cnn(Cc2cc3onc(NS(=O)(=O)c4ccccc4OC)c3cc2OC)c1 [Syn. Ex. 146, 2-fluoro-N-((1-((5-methoxy-3-((2-methoxyphenyl)sulfonamido)benzo[d]isoxazol-6-yl)methyl)-1H-pyrazol-4-yl)methyl) acrylamide]			99	101
C=C(F)C(=O)NCc1cnn(Cc2cc(OC)c3c(NS(=O)(=O)c4cc5c(cc4OC)CCC5)noc3c2)c1 [Syn. Ex. 30, 2-fluoro-N-((1-((4-methoxy-3-((6-methoxy-2,3-dihydro-1H-indene)-5-sulfonamido)benzo[d]isoxazol-6-yl)methyl)-1H-pyrazol-4-yl)methyl)acrylamide]			100	100
CCc1ccc(OCCO)c(S(=O)(=O)Nc2noc3cc(Cn4cc(CNC(=O)OC)cn4)cc(OC)c23)c1 [Syn. Ex. 64, methyl ((1-((3-((5-ethyl-2-(2-hydroxyethoxy)phenyl)sulfonamido)-4-methoxybenzo[d]isoxazol-6-yl)methyl)-1H-pyrazol-4-yl)methyl)carbamate]	94	100		
CCc1ccc(OC)c(S(=O)(=O)Nc2noc3cc(Cn4cc(CNC(C)=O)cn4)cc(OC)c23)c1 [Syn. Ex. 8, N-((1-((3-((5-ethyl-2-methoxyphenyl)sulfonamido)-4-methoxybenzo[d]isoxazol-6-yl)methyl)-1H-pyrazol-4-yl)methyl) acetamide]	99	100		
C=C(F)C(=O)NCc1cnn(Cc2cc(OC)c3c(NS(=O)(=O)c4c(OC)ccnc4OC)noc3c2)c1 [Syn. Ex. 87, N-((1-((3-((2,4-dimethoxypyridine)-3-sulfonamido)-4-methoxybenzo[d]isoxazol-6-yl)methyl)-1H-pyrazol-4-yl)methyl)-2-fluoroacrylamide]			95	100
CCc1ccc(OCc2nn[nH]n2)c(S(=O)(=O)Nc2noc3cc(Cn4cc(CNC(=O)OC)cn4)cc(OC)c23)c1 [Syn. Ex. 71, methyl ((1-((3-((2-((2H-tetrazol-5-yl)methoxy)-5-ethylphenyl)sulfonamido)-4-methoxybenzo[d]isoxazol-6-yl)methyl)-1H-pyrazol-4-yl)methyl)carbamate]	100	100		
C=C(F)C(=O)NCc1cnn(Cc2cc(OC)c3c(NS(=O)(=O)c4cc(C)c(C)cc4OC)noc3c2)c1 [Syn. Ex. 28, 2-fluoro-N-((1-((4-methoxy-3-((2-methoxy-4,5-dimethylphenyl)sulfonamido)benzo[d]isoxazol-6-yl)methyl)-1H-pyrazol-4-yl)methyl)acrylamide]	100	100		
CCc1ccc(OC)c(S(=O)(=O)Nc2noc3cc(Cn4cc(CNC(=O)C#CCO)cn4)cc(OC)c23)c1 [Syn. Ex. 49, N-((1-((3-((5-ethyl-2-methoxyphenyl)sulfonamido)-4-methoxybenzo[d]isoxazol-6-yl)methyl)-1H-pyrazol-4-yl)methyl)-4-hydroxybut-2-ynamide]	94	100		
CCc1ccc(OC)c(S(=O)(=O)Nc2noc3cc(Cn4cc(CNC(=O)OCCNC(C)=O)cn4)cc(OC)c23)c1 [Syn. Ex. 48, 2-acetamidoethyl ((1-((3-((5-ethyl-2-methoxyphenyl)sulfonamido)-4-methoxybenzo[d]isoxazol-6-yl)methyl)-1H-pyrazol-4-yl)methyl)carbamate]	96	100		
COc1cc(C)c(C)cc1S(=O)(=O)Nc1noc2cc(Cn3cc(CNS(C)(=O)=O)cn3)cc(OC)c12 [Syn. Ex. 20, 2-methoxy-N-(4-methoxy-6-((4-(methylsulfonamidomethyl)-1H-pyrazol-1-yl)methyl)benzo[d]isoxazol-3-yl)-4,5-dimethylbenzenesulfonamide]	100	100		
CCc1ccc(OC)c(S(=O)(=O)Nc2noc3cc(Cn4cc(CNC(=O)[C@@H](C)F)cn4)cc(OC)c23)c1 (single isomer, unassigned) [Syn. Ex. 47a]	100	100		

The next lines start with results.

inhibition at 1 µM [%]	inhibition at 10 µM [%]	Compound	Average Kat6A % inhibition @ 1 μM [%]	Average Kat6A % inhibition @ 10 μM [%]
99	99	CCOc1cc(C)ccc1S(=O)(=O)Nc1noc2cc(Cn3cc(CNC(=O)OC)cn3)cc(OC)c12 [Syn. Ex. 136, methyl ((1-((3-((2-ethoxy-4-methylphenyl)sulfonamido)-4-methoxybenzo[d]isoxazol-6-yl)methyl)-1H-pyrazol-4-yl)methyl)carbamate]		
100	100	C=C(F)C(=O)NCc1cnn(Cc2cc(OC)c3c(NS(=O)(=O)c4cc(CC)ccc4OCCC#N)noc3c2)c1 [Syn. Ex. 84, N-((1-((3-((2-(2-cyanoethoxy)-5-ethylphenyl)sulfonamido)-4-methoxybenzo[d]isoxazol-6-yl)methyl)-1H-pyrazol-4-yl)methyl)-2-fluoroacrylamide]		
100	100	C=C(F)C(=O)NCc1cnn(Cc2cc(OC)c3c(NS(=O)(=O)c4cc(CC)ccc4OCc4ncc[nH]4)noc3c2)c1 [Syn. Ex. 119, N-((1-((3-((2-((1H-imidazol-2-yl)methoxy)-5-ethylphenyl)sulfonamido)-4-methoxybenzo[d]isoxazol-6-yl)methyl)-1H-pyrazol-4-yl)methyl)-2-fluoroacrylamide]		
100	100	C=C(F)C(=O)NCc1cnn(Cc2cc(OC)c3c(NS(=O)(=O)c4cc(CC)ccc4OCc4nn[nH]n4)noc3c2)c1 [Syn. Ex. 72, N-((1-((3-((2-((2H-tetrazol-5-yl)methoxy)-5-ethylphenyl)sulfonamido)-4-methoxybenzo[d]isoxazol-6-yl)methyl)-1H-pyrazol-4-yl)methyl)-2-fluoroacrylamide]		
91	100	C=C(F)C(=O)NCc1cnc(Oc2cc(OC)c3c(NS(=O)(=O)c4cc(CC)ccc4OC)noc3c2)o1 [Syn. Ex. 99, N-((2-((3-((5-ethyl-2-methoxyphenyl)sulfonamido)-4-methoxybenzo[d]isoxazol-6-yl)oxy)oxazol-5-yl)methyl)-2-fluoroacrylamide]		
9	58	CCc1ccc(OC)c(S(=O)(=O)Nc2noc3cc(Oc4cc(CNC(=O)OC)ccn4)cc(OC)c23)c1 [Syn. Ex. 110, methyl ((2-((3-((5-ethyl-2-methoxyphenyl)sulfonamido)-4-methoxybenzo[d]isoxazol-6-yl)oxy)pyridin-4-yl)methyl)carbamate]		
95	98	CCc1ccc(OC)c(S(=O)(=O)Nc2noc3cc(Oc4ccc(N)cn4)cc(OC)c23)c1 [Syn. Ex. 109, N-(6-((5-aminopyridin-2-yl)oxy)-4-methoxybenzo[d]isoxazol-3-yl)-5-ethyl-2-methoxybenzenesulfonamide]		
97	101	COC(=O)NCc1cnn(Cc2cc3onc(NS(=O)(=O)c4ccccc4OC)c3c3c2CCO3)c1 [Syn. Ex. 134, methyl ((1-((8-((2-methoxyphenyl)sulfonamido)-2,3-dihydrobenzofuro[7,6-d]isoxazol-4-yl)methyl)-1H-pyrazol-4-yl)methyl)carbamate]		
100	100	CCc1ccc(OCC(=N)NO)c(S(=O)(=O)Nc2noc3cc(Cn4cc(CNC(=O)OC)cn4)cc(OC)c23)c1 [Syn. Ex. 115, methyl ((1-((3-((5-ethyl-2-(2-(hydroxyamino)-2-iminoethoxy)phenyl)sulfonamido)-4-methoxybenzo[d]isoxazol-6-yl)methyl)-1H-pyrazol-4-yl)methyl)carbamate]		
100	100	CCc1ccc(OCc2ccc(F)cc2)c(S(=O)(=O)Nc2noc3cc(Cn4cc(CNC(=O)OC)cn4)cc(OC)c23)c1 [Syn. Ex. 122, methyl ((1-((3-((5-ethyl-2-((4-fluorobenzyl)oxy)phenyl)sulfonamido)-4-methoxybenzo[d]isoxazol-6-yl)methyl)-1H-pyrazol-4-yl)methyl)carbamate]		
100	100	C=C(F)C(=O)NCc1cnn(Cc2cc3onc(NS(=O)(=O)c4cc(CC)ccc4OC)c3c3c2CCCO3)c1 [Syn. Ex. 96, N-((1-((9-((5-ethyl-2-methoxyphenyl)sulfonamido)-3,4-dihydro-2H-chromeno[8,7-d]isoxazol-5-yl)methyl)-1H-pyrazol-4-yl)methyl)-2-fluoroacrylamide]		
